Data taken from US20200331904A1, “3-AMINO-[1,2,4]-TRIAZOLE DERIVATIVES AND THEIR USE FOR CONTROLLING UNDESIRED PLANT GROWTH” (Bayer CropScience Aktiengesellschaft, priority 2017, published 2020).

Assays:
Type in all cases: in vivo
Echinochloa crus-galli = experiment: Pre-emergence herbicidal efficacy, ECHCG; conditions: Table B1, application rate 320 g/ha, scored visually after about 3 weeks vs untreated controls
Method in brief: (§1)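 Seeds were sown in pots and covered with soil; WP or EC formulations were sprayed onto the soil surface as aqueous suspension or emulsion with 0.5% additive. Pots were kept in a greenhouse, and after about 3 weeks damage was rated visually as percent versus untreated controls (100% = plants dead, 0% = like control).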

Lolium rigidum = experiment: Pre-emergence herbicidal efficacy, LOLRI; conditions: Table B1, application rate 320 g/ha, scored visually after about 3 weeks vs untreated controls
From the text: C.1 Pre-Emergence Herbicidal Action and Crop Plant Compatibility Seeds of monocotyledonous and dicotyledonous weed plants and crop plants are placed in plastic or organic planting pots and covered with soil. The compounds of the invention, formulated in the form of wettable powders (WP) or as emulsion concentrates (EC), are then applied onto the surface of the covering soil as aqueous suspension or emulsion with addition of 0.5% additive at a water application rate of […] (converted). After the treatment, the pots are placed in a greenhouse and kept under good growth conditions for the trial plants. After about 3 weeks, the effect of the preparations is scored visually in comparison with untreated controls as percentages. For example, 100% activity=the plants have died, 0% activity=like control plants. […] Here, for example, compound Nos. I-214 and I-196, when applied pre-emergence, have very good activity (80% to 100% herbicidal activity) against harmful plants such as Abutilon theophrasti, Amaranthus retroflexus, Echinochloa crus-galli, Lolium rigidum, Matricaria inodora, Polygonum convolvulus, Setaria viridis, Stellaria media, Veronica persica and Viola tricolor at an application rate of 0.32 kg of active substance or less per hectare. At the same time, some of the compounds according to the invention leave Gramineae crops such as barley, wheat, rye, millet/sorghum, corn, rice or sugar cane virtually undamaged when applied pre-emergence, even at high active compound dosages. In addition, some substances are also harmless to dicotyledonous crops such as soya, cotton, oilseed rape or sugar beet.

Setaria viridis = experiment: Pre-emergence herbicidal efficacy, SETVI; conditions: Table B1, application rate 320 g/ha, scored visually after about 3 weeks vs untreated controls
Method in brief: as §1

Abutilon theophrasti = experiment: Pre-emergence herbicidal efficacy, ABUTH; conditions: Table B1, application rate 320 g/ha, scored visually after about 3 weeks vs untreated controls
Method in brief: as §1

Amaranthus retroflexus = experiment: Pre-emergence herbicidal efficacy, AMARE; conditions: scored visually after about 3 weeks vs untreated controls
Method in brief: as §1

Matricaria inodora = experiment: Pre-emergence herbicidal efficacy, MATIN; conditions: scored visually after about 3 weeks vs untreated controls
Method in brief: as §1

Polygonum convolvulus = experiment: Pre-emergence herbicidal efficacy, POLCO; conditions: scored visually after about 3 weeks vs untreated controls
Method in brief: as §1

Stellaria media = experiment: Pre-emergence herbicidal efficacy, STEME; conditions: scored visually after about 3 weeks vs untreated controls
Method in brief: as §1

Viola tricolor [1] = experiment: Pre-emergence herbicidal efficacy, VIOTR; conditions: scored visually after about 3 weeks vs untreated controls
Method in brief: as §1

Veronica persica [2] = experiment: Pre-emergence herbicidal efficacy, VERPE; conditions: scored visually after about 3 weeks vs untreated controls
Method in brief: as §1

Viola tricolor [3] = experiment: Post-emergence herbicidal efficacy, VIOTR
From the text: (§2) ABUTH: Abutilon theophrasti ALOMY: Alopecurus myosuroides AMARE: Amaranthus retroflexus AVEFA: Avena fatua CYPES: Cyperus esculentus ECHCG: Echinochloa crus-galli LOLMU: Lolium multiflorum MATIN: Matricaria inodora PHBPU: Ipomoea purpurea POLCO: Polygonum convolvulus SETVI: Setaria viridis STEME: Stellaria media VERPE: Veronica persica VTOTR: Viola tricolor
(§3) C.2 Post-Emergence Herbicidal Action and Crop Plant Compatibility
(§4) Seeds of monocotyledonous and dicotyledonous weeds and crop plants are placed in sandy loam in plastic or organic planting pots, covered with soil and cultivated in a greenhouse under controlled growth conditions. 2 to 3 weeks after sowing, the test plants are treated at the one-leaf stage. The compounds of the invention, formulated in the form of wettable powders (WP) or as emulsion concentrates (EC), are then sprayed onto the green parts of the plants as aqueous suspension or emulsion with addition of 0.5% additive at a water application rate of […] (converted). After the test plants had been kept in the greenhouse under optimum growth conditions for about 3 weeks, the activity of the preparations is rated visually in comparison to untreated controls. For example, 100% activity=the plants have died, 0% activity=like control plants.

Veronica persica [4] = experiment: Post-emergence herbicidal efficacy, VERPE
From the text: as §2, §3, §4

[5] = Table B1, application rate 320 g/ha
[6] = application rate 320 g/ha, rated visually after about 3 weeks (Table B7)
[7] = Table B2, application rate 320 g/ha
[8] = application rate 1280 g/ha, rated visually after about 3 weeks

Structure (SMILES) | Herbicidal efficacy against ECHCG (Echinochloa crus-galli) [%] | Herbicidal efficacy against LOLRI (Lolium rigidum) [%] | Herbicidal efficacy against SETVI (Setaria viridis) [%] | Herbicidal efficacy against ABUTH (Abutilon theophrasti) [%] | Herbicidal efficacy against AMARE (Amaranthus retroflexus; [5]) [%] | Herbicidal efficacy against MATIN (Matricaria inodora; [5]) [%] | Herbicidal efficacy against POLCO (Polygonum convolvulus; [5]) [%] | Herbicidal efficacy against STEME (Stellaria media; [5]) [%] | Herbicidal efficacy against VIOTR (Viola tricolor [1]; [5]) [%] | Herbicidal efficacy against VERPE (Veronica persica [2]; [5]) [%] | Herbicidal efficacy against VIOTR (Viola tricolor [3]; [6]) [%] | Herbicidal efficacy against VERPE (Veronica persica [4]; [6]) [%] | Herbicidal efficacy against AMARE (Amaranthus retroflexus; [7]) [%] | Herbicidal efficacy against MATIN (Matricaria inodora; [7]) [%] | Herbicidal efficacy against POLCO (Polygonum convolvulus; [7]) [%] | Herbicidal efficacy against STEME (Stellaria media; [7]) [%] | Herbicidal efficacy against VIOTR (Viola tricolor [1]; [7]) [%] | Herbicidal efficacy against VERPE (Veronica persica [2]; [7]) [%] | Herbicidal efficacy against VIOTR (Viola tricolor [3]; [8]) [%] | Herbicidal efficacy against VERPE (Veronica persica [4]; [8]) [%]
CC(=O)N1CCn2nc(N[C@@H]3CCCc4ccccc43)nc2C1 [Example I-163] | 100 | 80 | 100 | 100 | 100 | 100 | 100 | 100 | 100 | 100 | 80 | 90 |  |  |  |  |  |  |  | 
CC(=O)N1CCn2nc(NC3c4cc(C)ccc4CC3C)nc2C1 (stereo not shown) [Example I-165] | 100 | 100 | 100 | 100 | 100 | 100 | 100 | 100 | 100 | 100 | 80 | 90 |  |  |  |  |  |  |  | 
CC(=O)N1CCn2nc(N[C@@H]3CCc4ccc(C)cc43)nc2C1 [Example I-173] | 100 | 100 | 100 | 100 | 100 | 100 | 100 | 100 | 100 | 100 | 80 | 90 |  |  |  |  |  |  |  | 
Cc1ccc2c(c1)[C@H](Nc1nc3n(n1)CCN(S(C)(=O)=O)C3)[C@@H](C)C2 [Example I-190] | 100 | 100 | 100 | 100 | 100 | 100 | 100 | 100 | 100 | 100 | 80 | 80 |  |  |  |  |  |  |  | 
Cc1ccc2c(c1)[C@H](Nc1nc3n(n1)CCN(S(=O)(=O)C1CC1)C3)[C@@H](C)C2 [Example I-192] |  |  |  |  |  |  |  |  |  |  | 80 | 80 | 100 | 100 | 100 | 100 | 100 | 100 |  | 
Cc1ccc2c(c1)[C@H](Nc1nc3n(n1)CCN(S(C)(=O)=O)C3)CCC2 [Example I-198] | 90 | 100 | 90 | 100 | 100 | 100 | 100 | 100 | 100 | 100 | 80 | 90 |  |  |  |  |  |  |  | 
[O-][S+]1CCCCn2nc(NC3CCCc4ccccc43)nc21 (stereo not shown) [Example I-249] | 100 |  | 100 | 100 | 100 | 100 | 100 | 100 | 100 | 100 |  |  |  |  |  |  |  |  | 80 | 80
